Calls of active or inactive are those of the source. The rule behind the calls is not given here.
What was measured:
RAW264.7 [1] = assay: Immunomodulatory effect in LPS-stimulated mouse RAW264.7 cells assessed as increase in heme oxygenase 1 expression at 50 uM after 24 hrs by Western blot relative to LPS; assay type: functional
RAW264.7 [2] = assay: Effect on COX2 expression in mouse RAW264.7 cells after 24 hrs by Western blot; assay type: functional, cell-based
RAW264.7 [3] = assay: Immunomodulatory effect in LPS-stimulated mouse RAW264.7 cells assessed as increase in heme oxygenase 1 expression at 50 uM after 24 hrs by Western blot relative to untreated control; assay type: functional
RAW264.7 [4] = assay: Effect on iNOS expression in mouse RAW264.7 cells after 24 hrs by Western blot; assay type: functional, cell-based
RAW264.7 [5] = assay: Immunomodulatory effect in LPS-stimulated mouse RAW264.7 cells assessed as increase in heme oxygenase 1 expression at 100 uM after 24 hrs by Western blot relative to LPS; assay type: functional
RAW264.7 [6] = assay: Immunomodulatory effect in LPS-stimulated mouse RAW264.7 cells assessed as increase in heme oxygenase 1 expression at 100 uM after 24 hrs by Western blot relative to untreated control; assay type: functional
RAW264.7 [7] = assay: Immunomodulatory effect in LPS-stimulated mouse RAW264.7 cells assessed as increase in heme oxygenase 1 expression after 24 hrs by Western blot; assay type: functional, cell-based

CC1(C)[C@@H](O)CC[C@]2(C)C3=C(CC[C@@H]12)[C@@]1(C)CC[C@@]2(C)CC[C@@](C)(C(=O)O)C[C@H]2[C@]1(C)CC3 [BRYONOLIC ACID]
fold change (FC) (RAW264.7 [1]): 3.3
Activity (RAW264.7 [2]): inactive
fold change (FC) (RAW264.7 [3]): 13
Activity (RAW264.7 [4]): inactive
fold change (FC) (RAW264.7 [5]): 14
fold change (FC) (RAW264.7 [6]): 55
Activity (RAW264.7 [7]): Dose-dependent effect
